Twelve compounds from ChEMBL document CHEMBL6153093, “Aurovertins from a Marine-Derived Penicillium Species and Nonenzymatic Reactions in Their Formation” (J Nat Prod, 2025) can be followed below.

Data set [1] has as its system L02. Kind of data set: Cytotoxicity against human L02 cells incubated for 48 hrs by CCK8 assay. Format: toxicity, cell-based. Particulars: l02, 48 h. Background: Tetrazolium assays rely on reduction of a dye to a coloured formazan, in cell work by metabolically active cells.
The subject of data set [2] is Staphylococcus aureus. Kind of data set: Antibacterial activity against Staphylococcus aureus ATCC 6538 at 0.1 mg/mL incubated for 12 hrs by agar dilution method. Format: functional, organism-based. A general note: In agar dilution the substance is mixed into plates at graded concentrations.
The test system of data set [3] is Candida albicans. Briefly: Antifungal activity against Candida albicans ATCC 10231 at 0.1 mg/mL incubated for 12 hrs by agar dilution method. In kind it is functional, organism-based.
Data set [4] concerns Escherichia coli. Kind of data set: Antibacterial activity against Escherichia coli ATCC 11775 at 0.1 mg/mL incubated for 12 hrs by agar dilution method. In kind it is functional, organism-based.
For data set [5], the system named is HCT-116. Briefly: Cytotoxicity against human HCT-116 cells incubated for 48 hrs by CCK8 assay. Format: functional, cell-based.
For data set [6], the system named is Pseudomonas aeruginosa. Kind of data set: Antibacterial activity against Pseudomonas aeruginosa ATCC 10145 at 0.1 mg/mL incubated for 12 hrs by agar dilution method. Format: functional, organism-based.
Data set [7] deals with Nakaseomyces glabratus. Briefly: Antifungal activity against Candida glabrata ATCC 2001 at 0.1 mg/mL incubated for 12 hrs by agar dilution method. In kind it is functional, organism-based.
The test system of data set [8] is A549. Kind of data set: Cytotoxicity against human A549 cells incubated for 48 hrs by CCK8 assay. Format: functional, cell-based.
For data set [9], the system named is Staphylococcus aureus. Kind of data set: Antibacterial activity against methicillin-resistant Staphylococcus aureus subsp. aureus ATCC 43300 at 0.1 mg/mL incubated for 12 hrs by agar dilution method. Format: functional, organism-based.
Data set [10] deals with PC-9. Kind of data set: Cytotoxicity against human PC-9 cells incubated for 48 hrs by CCK8 assay. In kind it is functional, cell-based.

The structures appear in SMILES notation. The source made the active and inactive calls. The rule behind the calls is not given here.

With `COc1cc(=O)oc(\C=C/C=C/C=C/C(C)=C/[C@]2(C)O[C@H](C)[C@](C)(O)[C@H]2O)c1C`, the Activity entry in data set [1] is recorded as “Non-toxic”. For the same compound, the outcome in [2], in data set [3], in data set [4], in [5], in [6] and in data set [7] was inactive. Besides, the outcome in data set [8] and in [9] was inactive.

Consider `COc1cc(=O)oc(/C=C/C=C/C=C\[C@@]2(C)O[C@]3(C)[C@@H](O)[C@](C)(O[C@@H]3C)[C@@H]2O)c1C`, for which the outcome in [10], in data set [2], in data set [3], in data set [4], in [6] and in [7] was inactive. Besides, the outcome in data set [8] and in data set [9] was inactive. For the same compound, the Activity entry in data set [1] is “Non-toxic”.

In the case of `COc1cc(=O)oc(/C=C/C=C/C=C/[C@@]2(C)O[C@]3(C)[C@@H](O)[C@@](C)(O[C@@H]3C)C2=O)c1C`, the outcome in [10], in data set [2], in data set [3], in data set [4], in data set [6] and in [7] was inactive. The result in data set [8] and in [9] was inactive. For the same compound, in data set [1], the Activity result is “Non-toxic”.

For the compound `COc1cc(=O)oc(/C=C/C=C/C=C/[C@]2(C)O[C@]3(C)[C@@H](O)[C@@](C)(O[C@@H]3C)[C@H]2O)c1C`, the outcome in [10], in data set [2], in [3], in data set [4], in data set [6] and in [7] was inactive. The result in data set [8] and in data set [9] was inactive. In [1], the Activity entry is given as “Non-toxic”.

As to `COc1cc(=O)oc(/C=C/C=C/C=C/[C@]2(C)O[C@]3(C)[C@@H](O)[C@@](C)(O[C@@H]3C)C2=O)c1C`, the outcome in data set [10], in [2], in data set [3], in data set [4], in data set [6] and in [7] was inactive. Moreover, the result in data set [8] and in [9] was inactive. The Activity entry in data set [1] is reported as “Non-toxic”.

`COc1cc(=O)oc(\C=C/C=C/C=C/[C@]2(C)O[C@]3(C)[C@@H](O)[C@@](C)(O[C@@H]3C)[C@@H]2O)c1C`: the outcome in data set [10], in data set [2], in data set [3], in [4], in data set [6] and in [7] was inactive. The result in data set [8] and in data set [9] was inactive. Also, the Activity entry in data set [1] is “Non-toxic”.

As for `COc1cc(=O)oc(/C=C/C=C/C=C/C(C)=C\[C@]2(C)O[C@H](C)[C@](C)(O)[C@H]2O)c1C`, the Activity entry in data set [1] is listed as “Non-toxic”. Moreover, the result in data set [2], in data set [3], in data set [4], in [5], in [6] and in [7] was inactive. For the same compound, the result in data set [8] and in data set [9] was inactive.

Consider `COc1cc(=O)oc(/C=C/C=C/C=C\[C@]2(C)O[C@]3(C)[C@@H](O)[C@](C)(O[C@@H]3C)[C@@H]2O)c1C`, for which the result in [10], in [2], in [3], in data set [4], in data set [6] and in data set [7] was inactive. In addition, the result in data set [8] and in data set [9] was inactive. Moreover, the Activity entry in data set [1] is reported as “Non-toxic”.

On to `COc1cc(=O)oc(/C=C/C=C/C=C/[C@@]2(C)O[C@@]3(C)[C@@H](C)O[C@](C)(C2=O)[C@H]3O)c1C`, for which the outcome in data set [10], in [2], in data set [3], in data set [4], in [6] and in data set [7] was inactive. Moreover, the outcome in data set [8] and in data set [9] was inactive. For the same compound, the Activity entry in data set [1] is on record as “Non-toxic”.

As for `COc1cc(=O)oc(/C=C/C=C/C=C/[C@@]2(C)O[C@]3(C)[C@@H](O)[C@](C)(O[C@@H]3C)[C@H]2O)c1C`, the outcome in data set [10], in data set [2], in data set [3], in data set [4], in data set [6] and in data set [7] was inactive. For the same compound, the outcome in [8] and in data set [9] was inactive. Moreover, the Activity result in data set [1] is reported as “Non-toxic”.

Regarding `COc1cc(=O)oc(/C=C/C=C/C=C/C(C)=C/[C@]2(C)O[C@H](C)[C@](C)(O)[C@H]2O)c1C`, in data set [1], the Activity result is reported as “Non-toxic”. Moreover, the result in data set [2], in [3], in data set [4], in [5], in data set [6] and in data set [7] was inactive. The result in data set [8] and in data set [9] was inactive.

As to `COc1cc(=O)oc(/C=C/C=C/C=C/[C@]2(C)O[C@]3(C)[C@@H](O)[C@@](C)(O[C@@H]3C)[C@@H]2O)c1C`, the result in data set [10], in [2], in data set [3], in [4], in [6] and in data set [7] was inactive. Besides, the result in data set [8] and in [9] was inactive. Also, the Activity entry in [1] was “Non-toxic”.
